From patent US20260209152A1, “Substituted Hydroxystilbene Compounds and Derivatives, Synthesis and Uses Thereof” (Kynan Duke IP, LLC, priority 2019, published 2026)
pIC50: −log10 of the molar value. Several values for one entry are separate records, joined by “and”; a condition that tells them apart may be missing. Identical values can stand only once. Entries after “also recorded” stand apart in the source; their conditions may differ. Like-named read-outs stand apart in the source and are kept apart here. Values belong to the molecule of their own block, whether it stands above or below them.

Columns and labels:
[1] = system: Kidney CRL-1611; test: CellTiter Glo cell viability assay; format: cell-based; settings: Homo sapiens, 72 h
Method: (§1) 1.7*10^3 cells/well were seeded in quadruplicates in 96-well plate after plating. Drugs were added at 5 μM and 2-fold dilutions over 18 concentrations (0.000038146-5 […] range) to generate a dose-response curve. Cell growth was assessed on day 1, 3 and 5 after drug treatments using the CellTiter Glo Luminescence Cell Viability Assay (Promega) according to manufacturer's protocol. Thermo Scientific Varioskan LUX Multimode Microplate instrument was used for plate reading. Data are expressed as mean luminescence (arbitrary units) ±S.D.
(§2) Cell Viability Assays were employed to determine the concentration of Compound 1 (KYN-001) and analogues where the response is reduced by half. For each treatment of cancer cells, 1, 2, 5, 10 and 20 μM solutions of compounds were applied. GraphPad Prism 7 software was used to fit dose response curves. Relative Luminescence Units were plotted against the log values of the doses used and the nonlinear regression model was used for data analysis.
(§3) The protocol for cell proliferation was optimized for Compound 8 (KYN-119) to enable a more accurate assessment of its low IC50 value. In this protocol, 18 dosages (2 fold dilutions ranging from 0.000038146 to 5 μM) were applied to cells seeded in 96-well plates, and Luminescence was measured after 1, 3 and 5 days upon treatments.

[2] = system: Pancreatic AsPC-1n; test: CellTiter Glo cell viability assay; format: cell-based; settings: Homo sapiens, 72 h; 3 Days of treatment; 18 2-fold dilutions 5-0.00003 μM
Method: as §1, §2, §3

[3] = system: Liver JHH-5; test: CellTiter Glo cell viability assay; format: cell-based; settings: Homo sapiens, 72 h; 3 Days of treatment; 18 2-fold dilutions 5-0.00003 μM
Method: as §1, §2, §3

[4] = system: Bladder HT_1376; test: CellTiter Glo cell viability assay; format: cell-based; settings: Homo sapiens, HT-1376, 72 h; 3 Days of treatment; 18 2-fold dilutions 5-0.00003 μM
Method: as §1, §2, §3

[5] = system: melanoma B16F10 xenografted in BALB/c mice; test: B16F10 xenografted mice: tumor volume and histopathology; format: in vivo
Method: B16F10 cells (25×10^5 cells/mouse) were injected subcutaneously into the right flank of female BALB/c mice aged 7-8 weeks. Mice (n=10) were divided into 2 groups and given daily oral suspension of 27 (treated group), or vehicle (control group) for 15 days. The treated group was orally given a suspension of 27 at 900 mg/kg. The control group was given the vehicle suspension (SEDDS). Measurements performed on days 0, 9 and 15 only. Tissues (plasma, tumor, liver, spleen and brain) were harvested within 3 hours of final treatment. Biopsies of tumor tissues for histopathology were obtained subsequently.
Tissue samples from the tumors of both treated and control mice were fixed with formalin. Histopathological examination of these tumor samples was performed by Lore Laboratory, CA, USA.

[6] = system: BalbC mice; test: Maximum Tolerable Dose - LD/50 single dose oral administration; format: in vivo; settings: single oral dose 2000 mg/kg in SEDDS vehicle, 5 BalbC mice, observation 5 days
Method: To ascertain initial information regarding the toxicity and tolerability of compound 27.
• A single administration of orally formulated maximum dose, 2000 mg/kg was given to 5 BalbC mice. Observation was carried out for 5 days.
• Compound 27 was weighed out and diluted into the same SEDDS vehicle used for S1. The SEDDS vehicle is composed of the following components: • Labrasol (30%) • PEG-400 (20%) • Kolliphore RH-40 (30%) • Labrafil (20%) • The concentration of 27 in SEDDS was 200 mg/mL which would translate to a 2000 mg/kg oral dose for a 20 g mouse administered 200 ul. Oral administration was administered to 5 mice and the animals were carefully observed for signs of toxicity in the first hour then sporadically over 5 days.

[7] = 900 mg/kg oral daily, individual treated mice

SMILES: COc1cc(/C=C/c2cc(O)cc(OC)c2CC=C(C)C)ccc1O [Compound 1, (E)-3-(4-hydroxy-3-methoxystyryl)-5-methoxy-4-(3-methylbut-2-en-1-yl)phenol]
pIC50 ([1]; 3 Days of treatment, 18 2-fold dilutions 5-0.00003 μM, read-out: Average IC50): 7.03 | pIC50 ([1]; Day 3 upon drug treatment, 10 dosages 0.0001-20 μM, read-out: IC50): 7.03

pIC50 [2]: 5.70
SMILES: CCOc1cc(O)cc(/C=C/c2ccc(O)c(OC)c2)c1CC=C(C)C [Compound 8, (E)-3-Ethoxy-5-(4-hydroxy-3-methoxystyryl)-4-(3-methylbut-2-en-1-yl)phenol]
pIC50 [3]: 5.36 | pIC50 [4]: 6.21

SMILES: COc1cc(/C=C/c2cc(O)cc(OC)c2CC=C(C)C)ccc1NC=O [Compound 27, (E)-N-(4-(5-hydroxy-3-methoxy-2-(3-methylbut-2-en-1-yl)styryl)-2-methoxyphenyl)formamide]
Histochemical analysis of tumor samples, in words ([5]; 900 mg/kg oral daily for 15 days): tumors were subsequently diminished after day 10; also recorded: lysed and/or underwent necrosis | Tumor volume Day 0 [5, 7]: 109.29 mm^3 and 52.18 mm^3 and 58.45 mm^3 and 82.97 mm^3 and 66.82 mm^3 | Tumor volume Day 9 [5, 7]: 132.59 mm^3 and 178.68 mm^3 and 37.38 mm^3 and 60.93 mm^3 and 47.3 mm^3 | Tumor volume Day 15 [5, 7]: 5.31 mm^3 and 19.93 mm^3 and 35.03 mm^3 and 42.35 mm^3 and 39.44 mm^3 | Toxicity and tolerability, survival and signs of distress [6]: All five mice survived and showed no immediate signs of distress; also recorded: high degree of oral tolerability
